Like-named read-outs stand apart in the source and are kept apart here.
Columns and labels:
[1] = test system: Tyrosinase (TYR, EC1.14.18.1) from mushroom; assay: Fluorescence quenching of tyrosinase by TPs (Stern–Volmer analysis); format: binding; settings: for bimolecular quenching constant (κq): calculated by KSV/τ0, τ0 10^−8 s; for Stern–Volmer quenching constant (KSV): excited at 274 nm, pH 6.5; for binding constant (KA): static quenching equation
Description: The fluorescence spectrum of the TP-TYR complex was measured according to our previous work.[27] Briefly, 10 mM TP was titrated into 3 mL potassium phosphate buffer (pH 6.5) containing 10 units tyrosinase under continuous stirring and nitrogen exists. After 5 minutes, tyrosinase was excited at 274 nm and the emission spectrum over the range of 280 nm to 400 nm was detected through a 3 nm slit. The emission spectrum of the tyrosinase solution was also directly measured as a background.
Fluorescence quenching mechanism is usually divided into static or dynamic manner.[46] To clarify the quenching mechanism of the interaction between tyrosinase and TPs, we analyzed the fluorescence quenching data using the Stern–Volmer equation.[47]2 [drawing 2] where F0 and F are the relative fluorescence intensities before and after the addition of inhibitor, respectively; κq is the bimolecular quenching rate constant; τ0 is the fluorescence lifetime at 10^−8 s for most biological macromolecules,[48] [Q] is the concentration of inhibitor and KSV is the Stern–Volmer quenching constant. The Stern–Volmer quenching constant (KSV) determined by linear regression of a curve of F0/F versus [Q] was plotted in Fig. 2 (inset). As listed in Table 1, the KSV value of ECG with less one hydroxyl group on ring B is much higher than that of EGCG. Good linear relationships in three Stern–Volmer plots of TPs are generally the indication of a single type of quenching manner. The calculated κq values by KSV/τ0 are 0.48 × 10^12, 4.10 × 10^12 and 3.13 × 10^12 M^−1 for catechin, ECG and EGCG, respectively. […] For static quenching mechanism, the binding site number (n) and association constant (KA) can be obtained by the following equation:[49]3 [drawing 3]

[2] = test system: Tyrosinase (TYR, EC1.14.18.1) from mushroom; assay: Oximetry: oxygen utilization in oxidation of TPs by tyrosinase and of L-DOPA by the remaining tyrosinase; format: biochemical; settings: for inactivation rate (k2) of tyrosinase / oxidation rate (k1): fit of oxygen utilization curve, 30 °C, pH 6.5; for partition ratio (r): molecules of inhibitor required to inactivate one molecule of tyrosinase: intercept on abscissa, ESI Fig. 3
Description: The oxygen consumption in the process of tyrosinase interacting with TPs was monitored with the reported method.[28] Briefly, 0.4 mL of 8.2 mM TP was added to 19.2 mL phosphate buffer (pH 6.5). After equilibrating at 30 °C for 5 min, 0.4 mL of 500 unit per ml tyrosinase was injected to TP solution under continuous stirring. The decrease of oxygen was monitored with the dissolved oxygen meter. In order to evaluate the remaining activity of tyrosinase, L-DOPA was added to the above mixture of tyrosinase and TP after 5 minutes if no oxygen decreasing was observed, followed by monitoring the secondary oxygen utilization in the oxidation reaction of L-DOPA catalyzed by the remaining tyrosinase. The concentration of L-DOPA was 194 μM.
To further reveal tyrosinase inhibitory mechanisms of TPs, we monitored oxygen utilization against time starting from the injecting of TPs into tyrosinase solution using oximetry. The corresponding time-dependent curves of oxygen utilization are depicted in Fig. 4A. In the initial stage, the increase of oxygen utilization for TPs further corroborates that TPs could be oxidized by tyrosinase like-as substrate manner. The time-dependent curves of oxygen utilization can be better fitted with the following equation:[28]4 [drawing 4] where, Ut is the oxygen consumption at time t; E0 is the initial amount of tyrosinase; k1 and k2 are the oxidation rate and the inactivation rate of tyrosinase, respectively. As listed in Table 2, ECG and catechin can inactivate tyrosinase with inactivation rate (k2) of 0.018 and 0.016, respectively, while the inactivation rate of EGCG is ∼4 times lower than catechin. […] Furthermore, the catecholase activities of residual tyrosinase were evaluated by the oxygen utilization of L-DOPA. […] The slope (K) of oxygen consumption curve is positive proportional to the amount of residual tyrosinase.[64] Obviously, the remaining quantity of tyrosinase for EGCG is largest, while the residual amount is least for ECG. […] In this inactivation pathway, the catechol is converted to an intermediate by deprotonation and reductive elimination along with the leaving of forming Cu(0) from catalytic center, leading to the irreversible inactivation of tyrosinase.[28] However, the oxidation of ring B on EGCG or ring G on both ECG and EGCG (the pyrogallol group) catalyzed by tyrosinase should be competitive with the natural substrate (such as L-DOPA) through the diphenolase-like catalytic pathway (as shown in Fig. 5), because the three adjacent hydroxyl groups on the pyrogallol group having larger steric hindrance and worse orientation were unfavorable to the insert of additional oxygen on the aromatic ring.[28] Tyrosinase at last can be reactivated after catalyzing the oxidation of two molecules of EGCG, accounting for the lower inhibitory activity of EGCG than ECG and catechin. […] As shown in ESI Fig. 3 ^† (the intercept on abscissa), inactivating one molecule of tyrosinase requires 14.7 molecules of ECG or 38.7 molecules of catechin, being better consistent with their inactivation rate. The lower inactivation efficiency against tyrosinase explained that catechin has weaker inhibitory activity than ECG.

[3] = molecular target: T1, Tyrosinase (TYR, EC1.14.18.1) from mushroom (Agaricus bisporus, UniProt C7FF04); assay: Inhibition of diphenolase activity of tyrosinase with L-DOPA as substrate (spectroscopy at 475 nm; HPLC for catechin); format: biochemical
T1 construct: purchased Sigma-Aldrich
Description: The inhibitory activity of the TPs, i.e., catechin, ECG, and EGCG, and a positive control, i.e., KA, against diphenolase activity of tyrosinase was measured with L-DOPA as a substrate using the reported spectroscopy method.[13,24] Assays were conducted in a 96-well micro-plate and a spectrophotometer reader was used to determine the absorbance.[25] Briefly, 6 μL of 1000 unit per mL tyrosinase solution was combined with potassium phosphate buffer (pH 6.5) and 1 mM KA or TPs (both dissolved in potassium phosphate buffer, pH 6.5). After pre-incubating at 25 °C for 5 min, 150 μL of 1 mM L-DOPA aqueous solution was added, followed by incubation at 25 °C for 10 min, again, before the concentration determination of DOPA quinone at 475 nm absorbance. The total volume of each reaction system was 300 μL. […] The inhibitory activity was expressed by IC50 value, which is equal to the concentration of inhibitor at 50% inhibitory rate according to the following equation:[25]1 [drawing 1] where, A is the optical density (OD475) of potassium phosphate buffer; B, C and D are the OD475 of potassium phosphate buffer with tyrosinase, with both TPs and tyrosinase, and with TPs, respectively.

[4] = diphenolase activity, L-DOPA substrate, pH 6.5, 25 °C, read-out: IC50

T1 sequence (C7FF04 1-392): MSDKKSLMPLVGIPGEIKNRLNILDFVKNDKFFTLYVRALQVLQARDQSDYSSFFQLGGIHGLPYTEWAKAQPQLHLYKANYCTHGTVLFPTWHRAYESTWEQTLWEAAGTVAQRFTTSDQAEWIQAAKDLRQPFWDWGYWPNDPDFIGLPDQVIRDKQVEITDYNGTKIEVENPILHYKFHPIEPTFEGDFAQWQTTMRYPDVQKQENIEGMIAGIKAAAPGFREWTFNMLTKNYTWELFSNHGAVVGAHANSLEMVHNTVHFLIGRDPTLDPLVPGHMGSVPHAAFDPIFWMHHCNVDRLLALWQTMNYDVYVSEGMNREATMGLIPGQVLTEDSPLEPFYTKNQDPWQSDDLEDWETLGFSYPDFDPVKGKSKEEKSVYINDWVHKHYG

SMILES | association constant (KA) [1] | bimolecular quenching constant (κq) [1] | Stern–Volmer quenching constant (KSV) [1] | binding constant (KA) [1] | inactivation rate (k2) of tyrosinase [2] | oxidation rate (k1) [2] | partition ratio (r): molecules of inhibitor required to inactivate one molecule of tyrosinase [2] | IC50 [3, 4] | inactivation rate, times lower than catechin [2] | slope (K) of the residual tyrosinase oxidizing L-DOPA substrate ([2]; oxygen utilization, 194 μM L-DOPA added after TP) | IC50 [3] | tyrosinase inhibitory activity, fold stronger than that of EGCG ([3]; by IC50 values)
Oc1cc(O)c2c(c1)OC(c1ccc(O)c(O)c1)C(O)C2 (single isomer, unassigned; (+)) [Catechin, (+)-catechin] | 0.04 × 10^5 | 4.8e+11 M⁻¹ s⁻¹ | 4800 M⁻¹ | 0.04 ×10^5 | 0.016 | 0.063 | 38.7 molecules | 57.1 µM | – | – | – | –
O=C(OC1Cc2c(O)cc(O)cc2OC1c1cc(O)c(O)c(O)c1)c1cc(O)c(O)c(O)c1 (single isomer, unassigned; (-)) [EGCG, (−)-epigallocatechin-3-O-gallate] | 3.07 × 10^5 | 3.13e+12 M⁻¹ s⁻¹ | 31300 M⁻¹ | 3.07 ×10^5 | 0.004 | 0.007 | – | 142 µM | ~4 times | 0.39 | – | –
O=C(OC1Cc2c(O)cc(O)cc2OC1c1ccc(O)c(O)c1)c1cc(O)c(O)c(O)c1 (single isomer, unassigned; (-)) [ECG, (−)-epicatechin gallate] | 0.53 × 10^5 | 4.1e+12 M⁻¹ s⁻¹ | 41000 M⁻¹ | 0.53 ×10^5 | 0.018 | 0.068 | 14.7 molecules | – | – | – | 22.6 µM | 6 fold

Reference: PMC9078569, “Understanding the inhibitory mechanism of tea polyphenols against tyrosinase using fluorescence spectroscopy, cyclic voltammetry, oximetry, and molecular simulations” (RSC Advances, 2018)
